Test results published in US10167262B2, “Herbicidal substituted 3-arylpyrazoles” (FMC CORPORATION, priority 2014, dated 2019).

Assays:
Format in all cases: in vivo
[1] = tested on: fall panicum (Panicum dichotomiflorum); test: Test E pre-/postemergence greenhouse test, plant response rating 0-100; details: Panicum dichotomiflorum, post-emergence, Postemergence, scale 0 to 100; for pest or weed control at 125 g/ha: 125 g ai/ha
Outline: (§1)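 Visual control score, 0–100 relative to untreated plants, recorded 14–21 days after spraying. Treatments: preemergence on silt loam seedbeds and postemergence at the 1- to 4-leaf stage, with compound in surfactant-containing solvent.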

[2] = tested on: wild poinsettia (Euphorbia heterophylla); test: as above; details: Euphorbia heterophylla, post-emergence, Postemergence, scale 0 to 100, read-out: Plant response rating, Poinsettia, Wild; for pest or weed control at 125 g/ha: 125 g ai/ha; for pest or weed control at 500 g/ha: 500 g ai/ha
Outline: as §1

[3] = tested on: Italian ryegrass (Lolium multiflorum); test: as above; details: Lolium multiflorum, post-emergence, Postemergence, scale 0 to 100; for pest or weed control at 125 g/ha: 125 g ai/ha; for pest or weed control at 500 g/ha: 500 g ai/ha
Outline: as §1

[4] = tested on: hairy beggarticks (Bidens pilosa); test: as above; details: Bidens pilosa, post-emergence, Postemergence, scale 0 to 100; for pest or weed control at 125 g/ha: 125 g ai/ha; for pest or weed control at 500 g/ha: 500 g ai/ha
Outline: as §1

[5] = tested on: barnyardgrass (Echinochloa crus-galli); test: as above; details: Echinochloa crus-galli, post-emergence, Postemergence, scale 0 to 100; for pest or weed control at 125 g/ha: 125 g ai/ha; for pest or weed control at 500 g/ha: 500 g ai/ha
Outline: as §1

[6] = tested on: dayflower (Virginia (VA) dayflower, Commelina virginica); test: as above; details: Commelina virginica, post-emergence, Postemergence, scale 0 to 100; for pest or weed control at 125 g/ha: 125 g ai/ha; for pest or weed control at 500 g/ha: 500 g ai/ha
Outline: as §1

corn (Zea mays) = test: as above; details: Zea mays, post-emergence, Postemergence, scale 0 to 100; for Corn plant response rating (crop injury, 0 = no effect, 100 = complete kill) at 125 g/ha: 125 g ai/ha; for Corn plant response rating (crop injury, 0 = no effect, 100 = complete kill) at 500 g/ha: 500 g ai/ha
Outline: as §1

[7] = tested on: palmer pigweed (Amaranthus palmeri); test: as above; details: Amaranthus palmeri, post-emergence, Postemergence, scale 0 to 100; for pest or weed control at 125 g/ha: 125 g ai/ha; for pest or weed control at 500 g/ha: 500 g ai/ha
Outline: as §1

[8] = tested on: sandbur (southern sandbur, Cenchrus echinatus); test: as above; details: Cenchrus echinatus, post-emergence, Postemergence, scale 0 to 100; for pest or weed control at 125 g/ha: 125 g ai/ha; for pest or weed control at 500 g/ha: 500 g ai/ha
Outline: as §1

[9] = tested on: arrowleaf sida (Sida rhombifolia); test: as above; details: Sida rhombifolia, post-emergence, Postemergence; for pest or weed control at 125 g/ha: 125 g ai/ha; for pest or weed control at 500 g/ha: 500 g ai/ha, scale 0 to 100 (0 no effect, 100 complete control)
Outline: as §1

[10] = tested on: Brazilian crabgrass (Digitaria horizontalis); test: as above; details: Digitaria horizontalis, post-emergence, Postemergence, scale 0 to 100, read-out: Plant response rating, Crabgrass, Brazil; for pest or weed control at 125 g/ha: 125 g ai/ha; for pest or weed control at 500 g/ha: 500 g ai/ha
Outline: as §1

[11] = tested on: barnyardgrass (Echinochloa crus-galli); test: Test B flooded paddy test, plant response rating 0-100; details: Flood, 250 g ai/ha; scale 0 to 100 (0 no effect, 100 complete control); 13 to 15 days
Outline: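 Visual injury ratings against untreated controls, taken 13 to 15 days after compound was added to paddy water standing 3 cm above the soil.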

Q: For COC(OC)(c1ccccc1)c1c[nH]nc1-c1cc(Cl)cc(Cl)c1 [Compound 13, 3-(3,5-dichlorophenyl)-4-(dimethoxyphenylmethyl)-1H-pyrazole], which pest or weed control at 125 g/ha [1] is on record?
A: 0%

Q: And the pest or weed control at 500 g/ha ([1]; 500 g ai/ha)?
A: 0%

Q: And the pest or weed control at 125 g/ha [2]?
A: 0%

Q: And the pest or weed control at 500 g/ha [2]?
A: 0%

Q: And the pest or weed control at 125 g/ha [3]?
A: 0%

Q: And the pest or weed control at 500 g/ha [3]?
A: 0%

Q: What about the pest or weed control at 125 g/ha [4] of the same molecule?
A: 60%

Q: What about the pest or weed control at 500 g/ha [4] of the same molecule?
A: 90%

Q: And the pest or weed control at 125 g/ha [5]?
A: 15%

Q: And the pest or weed control at 500 g/ha [5]?
A: 40%

Q: What about the pest or weed control at 125 g/ha [6] of the same molecule?
A: 10%

Q: What about the pest or weed control at 500 g/ha [6] of the same molecule?
A: 10%

Q: What about the Corn plant response rating (crop injury, 0 = no effect, 100 = complete kill) at 125 g/ha (corn (Zea mays)) of the same molecule?
A: 0%

Q: What about the Corn plant response rating (crop injury, 0 = no effect, 100 = complete kill) at 500 g/ha (corn (Zea mays)) of the same molecule?
A: 0%

Q: And the pest or weed control at 125 g/ha [7]?
A: 85%

Q: What about the pest or weed control at 500 g/ha [7] of the same molecule?
A: 95%

Q: What about the pest or weed control at 125 g/ha [8] of the same molecule?
A: 0%

Q: And the pest or weed control at 500 g/ha [8]?
A: 0%

Q: And the pest or weed control at 125 g/ha ([9]; scale 0 to 100)?
A: 80%

Q: And the pest or weed control at 500 g/ha [9]?
A: 90%

Q: What about the pest or weed control at 125 g/ha [10] of the same molecule?
A: 0%

Q: And the pest or weed control at 500 g/ha [10]?
A: 0%

Q: What about the “Plant response rating, Barnyardgrass” value [11] of the same molecule?
A: 0

Q: Which results are given for CCOC(OCC)(c1ccccc1)c1c[nH]nc1-c1cc(Cl)cc(Cl)c1 [Compound 14, 3-(3,5-dichlorophenyl)-4-(diethoxyphenylmethyl)-1H-pyrazole]?
A: pest or weed control at 31 g/ha ([1]; 31 g ai/ha): 0%; pest or weed control at 62 g/ha ([1]; 62 g ai/ha): 0%; pest or weed control at 125 g/ha [1]: 0%; pest or weed control at 250 g/ha ([1]; 250 g ai/ha): 0%; pest or weed control at 31 g/ha ([2]; 31 g ai/ha): 0%; pest or weed control at 62 g/ha ([2]; 62 g ai/ha): 0%; pest or weed control at 125 g/ha [2]: 0%; pest or weed control at 250 g/ha ([2]; 250 g ai/ha): 10%; pest or weed control at 500 g/ha [2]: 5%; pest or weed control at 31 g/ha ([3]; 31 g ai/ha): 0%; pest or weed control at 62 g/ha ([3]; 62 g ai/ha): 0%; pest or weed control at 125 g/ha [3]: 0%; pest or weed control at 250 g/ha ([3]; 250 g ai/ha): 0%; pest or weed control at 500 g/ha [3]: 0%; pest or weed control at 31 g/ha ([4]; 31 g ai/ha): 80%; pest or weed control at 62 g/ha ([4]; 62 g ai/ha): 90%; pest or weed control at 125 g/ha [4]: 95%; pest or weed control at 250 g/ha ([4]; 250 g ai/ha): 95%; pest or weed control at 500 g/ha [4]: 98%; pest or weed control at 31 g/ha ([5]; 31 g ai/ha): 0%; pest or weed control at 62 g/ha ([5]; 62 g ai/ha): 0%; pest or weed control at 125 g/ha [5]: 0%; pest or weed control at 250 g/ha ([5]; 250 g ai/ha): 0%; pest or weed control at 500 g/ha [5]: 10%; pest or weed control at 31 g/ha ([6]; 31 g ai/ha): 0%; pest or weed control at 62 g/ha ([6]; 62 g ai/ha): 0%; pest or weed control at 125 g/ha [6]: 0%; pest or weed control at 250 g/ha ([6]; 250 g ai/ha): 0%; pest or weed control at 500 g/ha [6]: 0%; Corn plant response rating (crop injury, 0 = no effect, 100 = complete kill) at 31 g/ha (corn (Zea mays); 31 g ai/ha): 0%; Corn plant response rating (crop injury, 0 = no effect, 100 = complete kill) at 62 g/ha (corn (Zea mays); 62 g ai/ha): 0%; Corn plant response rating (crop injury, 0 = no effect, 100 = complete kill) at 125 g/ha (corn (Zea mays)): 0%; Corn plant response rating (crop injury, 0 = no effect, 100 = complete kill) at 250 g/ha (corn (Zea mays); 250 g ai/ha): 0%; Corn plant response rating (crop injury, 0 = no effect, 100 = complete kill) at 500 g/ha (corn (Zea mays)): 0%; pest or weed control at 31 g/ha ([7]; 31 g ai/ha): 80%; pest or weed control at 62 g/ha ([7]; 62 g ai/ha): 90%; pest or weed control at 125 g/ha [7]: 95%; pest or weed control at 250 g/ha ([7]; 250 g ai/ha): 100%; pest or weed control at 500 g/ha [7]: 100%; pest or weed control at 31 g/ha ([8]; 31 g ai/ha): 0%; pest or weed control at 62 g/ha ([8]; 62 g ai/ha): 0%; pest or weed control at 125 g/ha [8]: 0%; pest or weed control at 250 g/ha ([8]; 250 g ai/ha): 0%; pest or weed control at 500 g/ha [8]: 0%; pest or weed control at 31 g/ha ([9]; 31 g ai/ha, scale 0 to 100): 80%; pest or weed control at 62 g/ha ([9]; 62 g ai/ha, scale 0 to 100): 90%; pest or weed control at 125 g/ha ([9]; scale 0 to 100): 90%; pest or weed control at 250 g/ha ([9]; 250 g ai/ha, scale 0 to 100): 90%; pest or weed control at 500 g/ha [9]: 95%; pest or weed control at 31 g/ha ([10]; 31 g ai/ha): 0%; pest or weed control at 62 g/ha ([10]; 62 g ai/ha): 0%; pest or weed control at 125 g/ha [10]: 0%; pest or weed control at 250 g/ha ([10]; 250 g ai/ha): 0%; pest or weed control at 500 g/ha [10]: 0%; Plant response rating, Barnyardgrass [11]: 0
